{"source": "paper PMC10537618", "about": "“Effect of Betanin, the Major Pigment of Red Beetroot (Beta vulgaris L.), on the Activity of Recombinant Human Cytochrome P450 Enzymes” (Pharmaceuticals, 2023)", "key": {"recombinant CYP3A4 [1]": {"molecular_target": "T1, recombinant CYP3A4 (Homo sapiens, UniProt P08684)", "T1 construct": "purchased Thermo Fisher Scientific; host or cells: insect cells (microsomes)", "T1 sequence (P08684 2-503 limits assumed)": "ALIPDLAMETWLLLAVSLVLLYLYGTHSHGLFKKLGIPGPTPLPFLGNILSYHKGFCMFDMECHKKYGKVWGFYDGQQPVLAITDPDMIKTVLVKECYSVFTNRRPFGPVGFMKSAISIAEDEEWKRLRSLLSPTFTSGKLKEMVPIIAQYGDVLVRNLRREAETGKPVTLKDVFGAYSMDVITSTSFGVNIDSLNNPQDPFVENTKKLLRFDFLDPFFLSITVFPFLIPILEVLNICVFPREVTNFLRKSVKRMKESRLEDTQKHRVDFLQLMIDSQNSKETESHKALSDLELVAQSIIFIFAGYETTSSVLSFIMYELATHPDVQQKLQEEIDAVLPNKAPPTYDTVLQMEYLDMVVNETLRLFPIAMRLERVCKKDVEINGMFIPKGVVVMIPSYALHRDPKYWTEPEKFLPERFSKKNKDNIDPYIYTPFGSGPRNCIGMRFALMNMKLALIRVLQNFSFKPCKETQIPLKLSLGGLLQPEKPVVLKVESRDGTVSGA", "test": "Vivid fluorescence-based CYP inhibition assay, recombinant CYP3A4 (BOMCC substrate)", "format": "in vitro ADME", "experimental": "(§1) We measured the activity of six representative CYPs using Vivid CYP screening kits. CYP activity was evaluated using recombinant CYPs and specific fluorescent substrates 7-ethoxymethoxy-3-cyanocoumarin (EOMCC) and 7-benzyloxymethyloxy-3-cyanocoumarin (BOMCC).\n(§2) Raw fluorescence data were normalized against control activity values of 0% and 100%. Control 0% activity values were obtained from samples consisting of 0.5% DMSO and the enzyme solvent buffer without the enzyme. Maximum 100% activity values were expressed as a reaction with only enzymes and 0.5% DMSO, with no other drugs. Furafylline (FRL) 100 μM, bupropion (BPP) 50 μM, omeprazole (OPZ) 50 μM, fluvoxamine (FVX) 100 μM, quinidine (QND) 50 μM, and ketoconazole (KCZ) 1 μM were used as positive controls for the fluorescence-based assay. […] Raw data were normalized using the software GraphPad Prism 8.02. The data represent the mean ± SEM of triplicate independent experiments.\nFluorescence-based assays were performed according to the manufacturer’s instructions. Control, CYP positive control inhibitor, and betanin (0.1–100 μM) solutions were prepared by diluting the compounds with Vivid CYP Reaction Buffer (Table 1). Next, 40 µL of control, CYP positive control inhibitor, or betanin solution was dispensed into the wells of black 96-well plates. A Master Pre-Mix was prepared by diluting the P450 BAC-ULOSOMES Plus Reagent and Vivid Regeneration System in Vivid CYP Reaction Buffer. The P450 BACULOSOMES Plus Reagents are microsomes made from insect cells that express human cytochrome P450 reductase and CYP450 isozyme. […] The plates were immediately measured in the kinetic mode using a SpectraMax M3 Multi-Mode Microplate Reader (Bio-Rad, Hercules, CA, USA). […] The signals were measured using a SpectraMax M3 Multi-Mode Microplate Reader (Bio-Rad). Data fitting generated a sigmoidal dose–response curve with values calculated using Microsoft Excel 2016 (Microsoft Corporation, Redmond, WA, USA)."}, "CYP1A2": {"test_system": "CYP1A2", "test": "P450-Glo luminescence-based CYP induction assay in HepG2 cells, CYP1A2 (Luciferin-1A2)", "conditions": "betanin 0.1–100 μM, versus control (DMSO 0.5%)", "source_text": "(§3) Results are mean ± SEM of triplicate independent experiments."}, "recombinant CYP2B6": {"molecular_target": "T2, recombinant CYP2B6 (Homo sapiens, UniProt P20813)", "T2 construct": "purchased Thermo Fisher Scientific; host or cells: insect cells (microsomes)", "T2 sequence (P20813 1-491)": "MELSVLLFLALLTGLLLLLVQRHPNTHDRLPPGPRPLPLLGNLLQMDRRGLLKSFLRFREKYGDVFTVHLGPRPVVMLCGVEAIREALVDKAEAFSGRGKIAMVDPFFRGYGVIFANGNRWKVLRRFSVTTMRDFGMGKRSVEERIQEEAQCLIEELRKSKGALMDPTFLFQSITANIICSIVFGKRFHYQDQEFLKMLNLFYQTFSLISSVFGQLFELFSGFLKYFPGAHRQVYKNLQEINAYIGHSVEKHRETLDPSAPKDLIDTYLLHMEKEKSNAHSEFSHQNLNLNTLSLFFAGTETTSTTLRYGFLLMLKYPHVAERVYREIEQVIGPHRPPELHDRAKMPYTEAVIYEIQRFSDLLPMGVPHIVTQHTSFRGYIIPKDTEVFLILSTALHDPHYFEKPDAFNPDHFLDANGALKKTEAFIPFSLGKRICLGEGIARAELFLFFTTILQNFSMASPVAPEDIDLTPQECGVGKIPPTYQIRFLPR", "test": "Vivid fluorescence-based CYP inhibition assay, recombinant CYP2B6 (BOMCC substrate)", "format": "in vitro ADME", "experimental": "as §1, §2\n(§4) Fluorescence-based assays were performed according to the manufacturer’s instructions. […] The plates were immediately measured in the kinetic mode using a SpectraMax M3 Multi-Mode Microplate Reader (Bio-Rad, Hercules, CA, USA). […] The signals were measured using a SpectraMax M3 Multi-Mode Microplate Reader (Bio-Rad). Data fitting generated a sigmoidal dose–response curve with values calculated using Microsoft Excel 2016 (Microsoft Corporation, Redmond, WA, USA)."}, "CYP2B6": {"test_system": "CYP2B6", "test": "P450-Glo luminescence-based CYP induction assay in HepG2 cells, CYP2B6 (Luciferin-2B6)", "format": "in vitro ADME, human", "design": "induction of CYP2B6 activity in HepG2 cells by positive control inducer: dose or concentration left out as unconfirmed", "procedure": "CYP enzyme activity was measured using P50-Glo assay kits. Omeprazole (OPZ) 1 mM and rifampicin (RFC) 1 and 10 mM were used as positive controls for the luminescence-based assay. The data are expressed as a percentage of the control (DMSO 0.5%). Results are mean ± SEM of triplicate independent experiments.\nHepG2 cells were seeded at a concentration of 3 × 10^4 cells per well for CYP1A2 and 1 × 10^5 cells per well for CYP2B6 and CYP2C9 in opaque white 96-well plates. After 24 h of incubation, the cells were combined with 0.5% DMSO (vehicle control), 1 mM omeprazole, 10 mM rifampicin, or 0.1–100 μM betanin for 48 h. The supernatant was then switched to fresh medium containing the same concentration of the compound and incubated for an additional 24 h. To measure luminescence, the culture medium was replaced with fresh medium containing the luciferin substrate and incubated at 37 °C in a 5% CO₂ incubator (Table 2). Next, 50 µL of each well was transferred to a well of a fresh 96-well opaque white cell culture plate and mixed with 50 µL of CYP Luciferin Detection Reagent at room temperature to initiate the enzymatic reaction. After incubation for 20 min, luminescence was measured using a SpectraMax M3 Multi-Mode Microplate Reader (Bio-Rad)."}, "HepG2 cells": {"test_system": "HepG2 cells", "test": "MTT cell viability assay", "format": "cell-based, human", "conditions": "0.1–100 μM, 48 h", "experimental": "Human hepatocellular carcinoma (HepG2) cells were cultured in Minimum Essential Medium (MEM) supplemented with 10% fetal bovine serum and 1% penicillin–streptomycin. HepG2 cells were maintained at 37 °C in a humidified environment with a 5% CO₂ atmosphere. The culture medium was replaced every day before measuring CYP activity. HepG2 cells were grown in opaque 96-well plates at a density of 1 × 10^4 cells/well. After 24 h, the cells were added with the desired concentration of betanin for 48 h. Next, 20 µL of 5 mg/mL MTT solution in PBS was added to each well and incubated for 2 h. After removing the supernatant, 100 µL of DMSO was dispensed into each well and the plate was incubated for 10 min."}, "recombinant CYP1A2": {"molecular_target": "T3, recombinant CYP1A2 (Homo sapiens, UniProt P05177)", "T3 construct": "purchased Thermo Fisher Scientific; host or cells: insect cells (microsomes)", "T3 sequence (P05177 2-516 limits assumed)": "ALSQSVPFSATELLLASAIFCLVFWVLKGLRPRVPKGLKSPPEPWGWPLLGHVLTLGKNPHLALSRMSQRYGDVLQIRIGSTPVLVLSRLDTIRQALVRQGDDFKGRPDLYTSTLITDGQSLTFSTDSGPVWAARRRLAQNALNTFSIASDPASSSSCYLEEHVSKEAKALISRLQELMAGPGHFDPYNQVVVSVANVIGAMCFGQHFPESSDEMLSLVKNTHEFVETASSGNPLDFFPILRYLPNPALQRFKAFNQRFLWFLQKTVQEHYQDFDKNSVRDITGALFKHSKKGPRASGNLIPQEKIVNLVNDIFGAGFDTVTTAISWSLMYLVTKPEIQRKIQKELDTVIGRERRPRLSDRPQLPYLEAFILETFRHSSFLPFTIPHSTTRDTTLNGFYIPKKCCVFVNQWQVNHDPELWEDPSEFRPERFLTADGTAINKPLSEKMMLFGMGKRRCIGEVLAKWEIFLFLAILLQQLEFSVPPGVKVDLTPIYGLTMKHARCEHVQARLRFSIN", "test": "Vivid fluorescence-based CYP inhibition assay, recombinant CYP1A2 (EOMCC substrate)", "format": "in vitro ADME", "experimental": "as §1, §2, §4"}, "CYP2C9": {"test_system": "CYP2C9", "test": "P450-Glo luminescence-based CYP induction assay in HepG2 cells, CYP2C9 (Luciferin-H)", "format": "in vitro ADME, human", "conditions": "betanin 0.1–100 μM, versus control (DMSO 0.5%)", "source_text": "as §3"}, "recombinant CYP2D6": {"molecular_target": "T4, recombinant CYP2D6 (Homo sapiens, UniProt P10635)", "T4 construct": "purchased Thermo Fisher Scientific; host or cells: insect cells (microsomes)", "T4 sequence (P10635 whole entry)": "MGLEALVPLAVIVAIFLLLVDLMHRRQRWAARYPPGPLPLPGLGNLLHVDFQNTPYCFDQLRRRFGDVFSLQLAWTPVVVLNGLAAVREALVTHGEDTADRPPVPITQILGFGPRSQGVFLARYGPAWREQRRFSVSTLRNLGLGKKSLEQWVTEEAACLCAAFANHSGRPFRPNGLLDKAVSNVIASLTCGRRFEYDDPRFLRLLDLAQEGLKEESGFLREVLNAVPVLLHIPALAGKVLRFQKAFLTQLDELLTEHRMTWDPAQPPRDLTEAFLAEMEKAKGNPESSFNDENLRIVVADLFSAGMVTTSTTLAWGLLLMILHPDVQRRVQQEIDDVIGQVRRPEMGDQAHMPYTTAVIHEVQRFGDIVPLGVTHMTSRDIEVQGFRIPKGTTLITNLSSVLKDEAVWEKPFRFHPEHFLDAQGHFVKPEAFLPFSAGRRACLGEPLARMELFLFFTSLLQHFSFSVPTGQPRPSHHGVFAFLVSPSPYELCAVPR", "test": "Vivid fluorescence-based CYP inhibition assay, recombinant CYP2D6 (EOMCC substrate)", "format": "in vitro ADME", "experimental": "as §1, §2, §4"}, "recombinant CYP2C19": {"molecular_target": "T5, recombinant CYP2C19 (Homo sapiens, UniProt P33261)", "T5 construct": "purchased Thermo Fisher Scientific; host or cells: insect cells (microsomes)", "T5 sequence (P33261 whole entry)": "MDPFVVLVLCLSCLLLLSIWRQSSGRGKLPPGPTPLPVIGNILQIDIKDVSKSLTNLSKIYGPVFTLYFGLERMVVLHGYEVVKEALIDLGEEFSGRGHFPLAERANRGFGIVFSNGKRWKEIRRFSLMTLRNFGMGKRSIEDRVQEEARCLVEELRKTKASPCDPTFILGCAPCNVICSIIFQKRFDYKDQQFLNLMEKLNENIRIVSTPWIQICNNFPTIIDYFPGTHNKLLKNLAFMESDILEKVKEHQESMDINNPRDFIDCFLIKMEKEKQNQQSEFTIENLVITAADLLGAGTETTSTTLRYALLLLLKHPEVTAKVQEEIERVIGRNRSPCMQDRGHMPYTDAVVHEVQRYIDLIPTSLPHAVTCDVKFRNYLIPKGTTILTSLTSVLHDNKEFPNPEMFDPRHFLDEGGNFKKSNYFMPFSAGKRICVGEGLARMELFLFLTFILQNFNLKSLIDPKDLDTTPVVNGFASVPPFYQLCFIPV", "test": "Vivid fluorescence-based CYP inhibition assay, recombinant CYP2C19 (EOMCC substrate)", "format": "in vitro ADME", "experimental": "as §1, §2, §4"}, "recombinant CYP2C9": {"molecular_target": "T6, recombinant CYP2C9 (Homo sapiens, UniProt P11712)", "T6 construct": "purchased; host or cells: insect cells (microsomes)", "T6 sequence (P11712 whole entry)": "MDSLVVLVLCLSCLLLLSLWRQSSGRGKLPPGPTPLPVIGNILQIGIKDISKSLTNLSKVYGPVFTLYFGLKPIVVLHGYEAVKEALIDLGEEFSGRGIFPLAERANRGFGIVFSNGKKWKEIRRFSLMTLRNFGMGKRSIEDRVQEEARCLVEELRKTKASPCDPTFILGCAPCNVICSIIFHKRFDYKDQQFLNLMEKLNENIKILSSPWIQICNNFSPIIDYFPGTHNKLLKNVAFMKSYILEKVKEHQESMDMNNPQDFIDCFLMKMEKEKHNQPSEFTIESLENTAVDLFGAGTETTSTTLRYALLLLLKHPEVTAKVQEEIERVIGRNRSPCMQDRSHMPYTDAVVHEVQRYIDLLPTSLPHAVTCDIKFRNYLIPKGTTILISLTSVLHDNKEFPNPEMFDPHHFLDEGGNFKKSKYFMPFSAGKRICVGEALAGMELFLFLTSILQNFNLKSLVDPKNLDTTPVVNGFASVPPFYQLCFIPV", "test": "Vivid fluorescence-based CYP inhibition assay, recombinant CYP2C9 (BOMCC substrate)", "format": "in vitro ADME", "experimental": "as §1, §2, §4"}, "recombinant CYP3A4 [2]": {"molecular_target": "T1, recombinant CYP3A4", "test": "CYP3A4 enzyme kinetics, Lineweaver–Burk plot and secondary plot for Ki", "format": "in vitro ADME", "experimental": "Next, we measured the kinetics of betanin metabolization by recombinant CYP3A4. Using the Michaelis constant (Km) and Vmax, we generated a Lineweaver–Burk plot. To obtain inhibition constant (Ki) values, various concentrations of BOMCC were incubated in the absence or presence of 3–100 μM betanin.\nData were obtained from 30 min incubation with BOMCC (1–20 μM) in the absence or presence of betanin (3–100 μM). All data are represented as mean ± SD from at least three independent experiments.\nCYP activity was measured using Vivid CYP screening kits supplied with P450 BACULOSOMES Plus Reagent containing each CYP. The assays were conducted in the absence or presence of betanin and different concentrations of specific substrates. BOMCC was used as a specific substrate for CYP3A4. Lineweaver–Burk plots were generated for the determination of CYP activity in the absence or presence of betanin."}, "[3]": {"conditions": "at any of the tested dosages (0.1–100 μM)"}, "[4]": {"conditions": "fluorescence-based, BOMCC substrate, betanin 0.1–100 μM"}, "[5]": {"conditions": "fluorescence-based, EOMCC substrate, betanin 0.1–100 μM"}}, "data": [{"smiles": "O=C(O)C1=C/C(=C/C=[N+]2/c3cc(O)c(OC4OC(CO)[C@@H](O)C(O)C4O)cc3CC2C(=O)[O-])CC(C(=O)O)N1", "note": "(stereo in doubt) [betanin, Betanin]", "values": [{"measurement": "inhibition of recombinant CYP3A4", "setting": "recombinant CYP3A4 [1]; 30 μM", "value": 58, "unit": "%"}, {"measurement": "inhibition of recombinant CYP3A4", "setting": "recombinant CYP3A4 [1]; 100 μM", "value": 87, "unit": "%"}, {"measurement": "IC50", "setting": "recombinant CYP3A4 [1]; fluorescence-based, BOMCC substrate, betanin 0.1–100 μM, 95% CI 19.09–23.06 μM", "value": 21, "unit": "µM"}, {"measurement": "induction effect on CYP1A2 activity in HepG2 cells", "setting": "CYP1A2", "value": "did not show any induction effect"}, {"measurement": "inhibitory effect on recombinant CYP2B6", "setting": "recombinant CYP2B6; [3]", "value": "≤ 30", "unit": "%"}, {"measurement": "IC50", "setting": "recombinant CYP2B6; [4]", "value": "> 100", "unit": "µM"}, {"measurement": "induction effect on CYP2B6 activity in HepG2 cells", "setting": "CYP2B6; betanin 0.1–100 μM, versus control (DMSO 0.5%)", "value": "did not show any induction effect"}, {"measurement": "cytotoxicity toward HepG2 cells (MTT)", "setting": "HepG2 cells", "value": "no cytotoxicity"}, {"measurement": "inhibitory effect on recombinant CYP1A2", "setting": "recombinant CYP1A2; [3]", "value": "≤ 30", "unit": "%"}, {"measurement": "IC50", "setting": "recombinant CYP1A2; [5]", "value": "> 100", "unit": "µM"}, {"measurement": "induction effect on CYP2C9 activity in HepG2 cells", "setting": "CYP2C9", "value": "did not show any induction effect"}, {"measurement": "inhibitory effect on recombinant CYP2D6", "setting": "recombinant CYP2D6; 100 μM", "value": 33, "unit": "%"}, {"measurement": "IC50", "setting": "recombinant CYP2D6; [5]", "value": "> 100", "unit": "µM"}, {"measurement": "inhibitory effect on recombinant CYP2C19", "setting": "recombinant CYP2C19; [3]", "value": "≤ 30", "unit": "%"}, {"measurement": "IC50", "setting": "recombinant CYP2C19; [5]", "value": "> 100", "unit": "µM"}, {"measurement": "inhibitory effect on recombinant CYP2C9", "setting": "recombinant CYP2C9; [3]", "value": "≤ 30", "unit": "%"}, {"measurement": "IC50", "setting": "recombinant CYP2C9; [4]", "value": "> 100", "unit": "µM"}, {"measurement": "Ki", "setting": "recombinant CYP3A4 [2]; 1–20 μM BOMCC, 3, 10, 30 and 100 μM betanin, 30 min incubation, read-out: Ki (inhibition constant) for CYP3A4", "value": 19.5, "unit": "µM"}, {"measurement": "mode of inhibition of CYP3A4", "setting": "recombinant CYP3A4 [2]; Lineweaver–Burk and secondary plots", "value": "competitive inhibitor"}]}, {"smiles": "CO[C@H]1/C=C/O[C@@]2(C)Oc3c(C)c(O)c4c(O)c(c(/C=N/N5CCN(C)CC5)c(O)c4c3C2=O)NC(=O)/C(C)=C\\C=C\\[C@H](C)[C@H](O)[C@@H](C)[C@@H](O)[C@@H](C)[C@H](OC(C)=O)[C@@H]1C", "note": "[rifampin, reference compound]", "values": [{"measurement": "induction of CYP2B6 activity in HepG2 cells by positive control inducer", "setting": "CYP2B6; compared to the control group", "value": "significantly induced"}]}]}
